Among the data in ChEMBL document CHEMBL5131518, “Discovery of 2-Phenylquinolines with Broad-Spectrum Anti-coronavirus Activity” (ACS Med Chem Lett, 2022) are inhibition, IC50 and selectivity ratio values, retold here.

Each structure is given as a SMILES string.

The test system of data set [1] is Severe acute respiratory syndrome coronavirus 2. Kind of data set: Inhibition of SARS-CoV-2 RdRp expressed in Escherichia coli BL21 DE3 co-expressing […] at 30 uM incubated for 1 hr by fluorescent bases assay.
Data set [2] can be described thus: Inhibition of SARS-CoV-2 RdRp expressed in Escherichia coli BL21 DE3 co-expressing […] incubated for 1 hr by fluorescent based assay. More on the design: species or system Severe acute respiratory syndrome coronavirus 2.
Data set [3] can be described thus: in vitro. Particulars: monkey, Vero E6 cells.
Description: Selectivity index, ratio of CC50 for cytotoxicity against African green monkey Vero E6 cells to EC50 for antiviral activity against SARS-CoV-2 infected in eGFP expressing African green monkey Vero E6 cells
Data set [4] is described as follows: in vitro. Particulars: human, HEL 299 cells.
Description: Selectivity index, ratio of CC50 for cytotoxicity against HEL 299 cells to EC50 for antiviral activity against HCoV-229E infected in HEL 299 cells
Data set [5] addresses Replicase polyprotein 1ab (Severe acute respiratory syndrome coronavirus 2) (UniProt P0DTD1). Description: Inhibition of SARS-CoV-2 nsp13 ATPase-associated activity using ATP as substrate at highest concentration of compound incubated for 30 mins by Biomol Green Reagent based assay.

In data set [1], `CCCOc1ccc(-c2cc(OCCN3CCN(Cc4ccccc4)CC3)c3c(OC)cc(OC)cc3n2)cc1` showed an inhibition of 100%. In data set [2], this molecule registered a concentration for half-maximal inhibition (IC50) greater than 30 µM. Besides, the figures for the selectivity ratio in “in vitro [3]” and in the data set “in vitro [4]” were greater than 12.7 and 16.4, respectively.
Regarding `CCCOc1ccc(-c2cc(OCCN3CCCCC3)c3cc(OC)c(OC)cc3n2)cc1`, the selectivity ratio in “in vitro [3]” amounted to 4.3; in the data set “in vitro [4]”, 52.4.
On the same counts, the results for `CCCOc1ccc(-c2cc(OCCN(CC)CC)c3c(OC)ccc(OC)c3n2)cc1` are 5.3 and 13.8.
In data set [2], `CCCOc1ccc(-c2cc(OCCN3CCc4cc(OC)c(OC)cc4C3)c3c(OC)cc(OC)cc3n2)cc1` returned an IC50 greater than 30 µM.
For `CCCOc1ccc(-c2cc(OCCN3CCCCC3)c3c(OC)ccc(OC)c3n2)cc1`, the inhibition in data set [1] worked out at 100%. This molecule also yielded a half-maximal inhibitory concentration (IC50) in data set [2] greater than 30 µM. For the same molecule, the selectivity ratio in “in vitro [3]” was 8.8; in the data set “in vitro [4]”, 10.2.
In the case of `CCCOc1ccc(-c2cc(OCCN(CC)CC)c3cc(OC)c(OC)cc3n2)cc1`, the results for the selectivity ratio in “in vitro [3]” and in “in vitro [4]” were 13.8 and 5.2, respectively.
On to `CCCOc1ccc(-c2cc(OCCN3CCCC3)c3cc(OC)c(OC)cc3n2)cc1`, for which the selectivity ratio in “in vitro [3]” was 1.3.
For `CCCOc1ccc(-c2cc(OCCN3CCNCC3)c3cccc(OC)c3n2)cc1`, the selectivity ratio in “in vitro [3]” came out at 4.3; in “in vitro [4]” it was 25.6.
For `C=CCn1c(S)nnc1CSc1ccccc1[N+](=O)[O-]`, the inhibition in data set [5] came out at 90%.
On to `CCCOc1ccc(-c2cc(OCCN3CCN(Cc4ccccc4)CC3)c3cccc(OC)c3n2)cc1`, for which the selectivity ratio in “in vitro [3]” amounted to 2.8.
Regarding `CCCOc1ccc(-c2cc(OCCN(CC)CC)c3c(OC)c(OC)c(OC)cc3n2)cc1`, the selectivity ratio in “in vitro [3]” was 2.9.
Consider `CCCOc1ccc(-c2cc(OCCN3CCCC3)c3cc(OC)cc(OC)c3n2)cc1`, for which the inhibition in data set [1] is 100%. This molecule returned a half-maximal inhibitory concentration (IC50) in data set [2] greater than 30 µM. Further, the selectivity ratio in “in vitro [3]” was greater than 16.9; in “in vitro [4]” it was greater than 2.5.
As to `CCCOc1ccc(-c2cc(OCCN3CCN(Cc4ccccc4)CC3)c3ccccc3n2)cc1`, the selectivity ratio was greater than 8.4 in “in vitro [3]” and greater than 1.6 in the data set “in vitro [4]”.
`CCCOc1ccc(-c2cc(OCCN3CCCC3)c3c(OC)ccc(OC)c3n2)cc1`: the selectivity ratio in “in vitro [3]” stood at 7.9; in “in vitro [4]”, 13.4.
On the same counts, the results for `CCCOc1ccc(-c2cc(OCCN(CC)CC)c3cc(OC)cc(OC)c3n2)cc1` are greater than 7.7 and 12.4.
Taken in the same sequence, the figures for `CCCOc1ccc(-c2cc(OCCN(CC)CC)c3cccc(OC)c3n2)cc1` were greater than 11 and 8.2.
